Laboratory results: patent US12129266B2, “Substituted pyrazolo[1,5-a]pyridine compound, composition containing the same and use thereof” (Shenzhen TargetRx, Inc., priority 2018, dated 2024)

Experiments:
[1] = Metabolic stability evaluation, liver microsome assay (HLM); assay type: in vitro ADME; settings: pH 7.4, human liver microsomes 0.5 mg/mL, compound 1 μM, NADPH, 37° C.; for half-life at 1 μM: read-out: HLM t1/2
Procedure: (§1) Microsome assay: human liver microsomes (HLM): 0.5 mg/mL, Xenotech; rat liver microsomes (RLM): 0.5 mg/mL, Xenotech; mice liver microsomes (MLM): 0.5 mg/mL, Xenotech; coenzyme (NADPH/NADH): 1 mM, Sigma Life Science; magnesium chloride: 5 mM, 100 mM phosphate buffer (pH is 7.4).
(§2) Preparation of stock solution: a certain amount of powder of the example compound and the reference compound were accurately weighed, and dissolved to 5 mM with DMSO, respectively.
(§3) Preparation of phosphate buffer (100 mM, pH7.4): Pre-formulated 150 mL 0.5 M potassium dihydrogen phosphate and 700 mL 0.5 M dipotassium hydrogen phosphate solution were mixed, then the pH of the mixture was adjusted to 7.4 with 0.5 M dipotassium hydrogen phosphate solution. Before use, 5-fold dilution was made with ultra-pure water, and magnesium chloride was added to afford phosphate buffer (100 mM), which containing 100 mM potassium phosphate, 3.3 mM magnesium chloride, pH is 7.4.
(§4) NADPH regeneration system solution (containing 6.5 mM NADP, 16.5 mM G-6-P, 3 U/mL G-6-P D, 3.3 mM magnesium chloride) was prepared and placed on wet ice before use.
(§5) Preparation of stop solution: Acetonitrile solution containing 50 ng/mL propranolol hydrochloride and 200 ng/mL tolbutamide (internal standard). 25057.5 μL phosphate buffer (pH 7.4) was taken into a 50 mL centrifuge tube, and 812.5 μL human liver microsome was added, mixed well to afford liver microsome diluent with a protein concentration of 0.625 mg/mL. 25057.5 μL phosphate buffer (pH 7.4) was taken into a 50 mL centrifuge tube, and 812.5 μL SD rat liver microsome was added, respectively, mixed well to afford liver microsome diluent with a protein concentration of 0.625 mg/mL. 25057.5 μL phosphate buffer (pH 7.4) was taken into a 50 mL centrifuge tube, and 812.5 μL mice liver microsome was added, respectively, mixed well to afford liver microsome diluent with a protein concentration of 0.625 mg/mL.
(§6) Incubation of the sample: The stock solutions of the corresponding compounds were diluted to 0.25 mM with an aqueous solution containing 70% acetonitrile as working solutions for use. 398 μL of human liver microsome or rat liver microsome or mice liver microsome diluent was taken and added to a 96-well incubation plate (N=2), respectively, and 2 μL of 0.25 mM working solution was then added respectively, and mixed well.
(§7) Determination of metabolic stability: 300 μL of pre-chilled stop solution was added to each well of a 96-well deep well plate and the plate was placed on ice as a stop plate. The 96-well incubation plate and NADPH regeneration system were placed in a 37° C. water bath box, shook at 100 rpm, and pre-incubated for 5 min. 80 μL of incubation solution was taken from each well of the incubation plate and added to the stop plate, mixed well, and 20 μL of NADPH regeneration system solution was supplemented, the resulted solution was considered as sample at 0 min. Then 80 μL of NADPH regeneration system solution was added to each well of the incubation plate to start the reaction and started timing. The reaction concentration of the corresponding compound is 1 μM, and the protein concentration is 0.5 mg/mL. 100 μL reaction solution was taken at 10, 30, 90 min of reaction, respectively, and added into stop plate, the reaction was stopped with 3 min vortex. The stop plate was centrifuged at 5000×g, 4° C. for 10 min. 100 μL of supernatant was taken to a 96-well plate where 100 μL of distilled water was added in advance, mixed well, sample analysis was subjected by LC-MS/MS.
(§8) Data analysis: LC-MS/MS system was used to detect peak area of corresponding compound and internal standard, peak area ratio of compound and internal standard was calculated.
(§9) [formula] t1/2(min); CLint(μL/min/mg).

[2] = Metabolic stability evaluation, liver microsome assay (RLM); assay type: in vitro ADME, SD rat; settings: Sprague-Dawley, pH 7.4, rat liver microsomes 0.5 mg/mL, compound 1 μM, NADPH, 37° C.; for half-life at 1 μM: read-out: RLM t1/2
Procedure: as §1, §2, §3, §4, §5, §6, §7, §8, §9

[3] = Metabolic stability evaluation, liver microsome assay (MLM); assay type: in vitro ADME; settings: mouse, mouse liver microsomes, pH 7.4, mice liver microsomes 0.5 mg/mL, compound 1 μM, NADPH, 37° C.; for half-life at 1 μM: read-out: MLM t1/2
Procedure: as §1, §2, §3, §4, §5, §6, §7, §8, §9

Ba/F3 parental = experiment: cells; settings: Mus musculus, BaF3, 72 h, read-out: IC50 (nM) Ba/F3 parental
Ba/F3 KIF5B-RET = experiment: Cytotoxicity assay (CellTiter-Glo), Ba/F3 KIF5B-RET; assay type: cell-based; settings: Mus musculus, BaF3; cell viability, 72 hours, CTG
Ba/F3 KIF5B-RET^V804M = experiment: Cytotoxicity assay (CellTiter-Glo), Ba/F3 KIF5B-RET V804M; assay type: cell-based; settings: Mus musculus, BaF3; cell viability, 72 hours, CTG

Row | Structure (SMILES) | microsomal CLint at 1 μM [1] | half-life at 1 μM [1] | microsomal CLint at 1 μM [2] | half-life at 1 μM [2] | microsomal CLint at 1 μM [3] | half-life at 1 μM [3] | IC50 (Ba/F3 parental) | IC50 (Ba/F3 KIF5B-RET) | IC50 (Ba/F3 KIF5B-RET^V804M)
1 | [2H]C([2H])([2H])Oc1ccc(CN2C3CC2CN(c2ccc(-c4cc(-c5cnn(C)c5)cn5ncc(C#N)c45)cn2)C3)cn1 [Example 1, 4-(6-(6-((6-(methoxy-d3)pyridin-3-yl)methyl)-3,6-diazabicyclo[3.1.1]heptan-3-yl)pyridin-3-yl)-6-(1-methyl-1H-pyrazol-4-yl)pyrazolo[1,5-a]pyridine-3-carbonitrile] | 87.5 µL/min/mg | 15.8 min | 51.5 µL/min/mg | 26.9 min | 73.2 µL/min/mg | 18.9 min |  |  | 
2 | [2H]C([2H])(c1ccc(OC)nc1)N1C2CC1CN(c1ccc(-c3cc(-c4cnn(C)c4)cn4ncc(C#N)c34)cn1)C2 [Example 2, 4-(6-(6-((6-methoxypyridin-3-yl)methyl-d2)-3,6-diazabicyclo[3.1.1]heptan-3-yl)pyridin-3-yl)-6-(1-methyl-1H-pyrazol-4-yl)pyrazolo[1,5-a]pyridine-3-carbonitrile] | 105 µL/min/mg | 13.2 min | 35.1 µL/min/mg | 39.5 min | 78.3 µL/min/mg | 17.7 min |  |  | 
3 | [2H]C([2H])([2H])Oc1ccc(C([2H])([2H])N2C3CC2CN(c2ccc(-c4cc(-c5cnn(C)c5)cn5ncc(C#N)c45)cn2)C3)cn1 [Example 3, 4-(6-(6-((6-(methoxy-d3)pyridin-3-yl)methyl-d2)-3,6-diazabicyclo[3.1.1]heptan-3-yl)pyridin-3-yl)-6-(1-methyl-1H-pyrazol-4-yl)pyrazolo[1,5-a]pyridine-3-carbonitrile] | 85.6 µL/min/mg | 16.2 min | 55.3 µL/min/mg | 25.1 min | 68.8 µL/min/mg | 20.2 min |  |  | 
4 | [2H]C([2H])([2H])Oc1ccc(CN2C3CC2CN(c2ccc(-c4cc(-c5cnn(C([2H])([2H])[2H])c5)cn5ncc(C#N)c45)cn2)C3)cn1 [Example 4, 4-(6-(6-((6-(methoxy-d3)pyridin-3-yl)methyl)-3,6-diazabicyclo[3.1.1]heptan-3-yl)pyridin-3-yl)-6-(1-(methyl-d3)-1H-pyrazol-4-yl)pyrazolo[1,5-a]pyridine-3-carbonitrile] | 97.9 µL/min/mg | 14.2 min | 49.1 µL/min/mg | 28.2 min | 63.5 µL/min/mg | 21.8 min |  |  | 
5 | [2H]C([2H])(c1ccc(OC)nc1)N1C2CC1CN(c1ccc(-c3cc(-c4cnn(C([2H])([2H])[2H])c4)cn4ncc(C#N)c34)cn1)C2 [Example 5, 4-(6-(6-((6-methoxypyridin-3-yl)methyl-d2)-3,6-diazabicyclo[3.1.1]heptan-3-yl)pyridin-3-yl)-6-(1-(methyl-d3)-1H-pyrazol-4-yl)pyrazolo[1,5-a]pyridine-3-carbonitrile] | 83.2 µL/min/mg | 16.7 min | 37.9 µL/min/mg | 36.6 min | 75.8 µL/min/mg | 18.3 min |  |  | 
6 | [2H]C([2H])([2H])Oc1ccc(C([2H])([2H])N2C3CC2CN(c2ccc(-c4cc(-c5cnn(C([2H])([2H])[2H])c5)cn5ncc(C#N)c45)cn2)C3)cn1 [Example 6, 4-(6-(6-((6-(methoxy-d3)pyridin-3-yl)methyl-d2)-3,6-diazabicyclo[3.1.1]heptan-3-yl)pyridin-3-yl)-6-(1-(methyl-d3)-1H-pyrazol-4-yl)pyrazolo[1,5-a]pyridine-3-carbonitrile] | 112 µL/min/mg | 12.4 min | 47.3 µL/min/mg | 29.3 min | 65 µL/min/mg | 21.3 min |  |  | 
7 | [2H]C([2H])([2H])n1cc(-c2cc(-c3ccc(N4CC5CC(C4)N5Cc4ccc(OC)nc4)nc3)c3c(C#N)cnn3c2)cn1 [Example 7, 4-(6-(6-((6-methoxypyridin-3-yl)methyl)-3,6-diazabicyclo[3.1.1]heptan-3-yl)pyridin-3-yl)-6-(1-(methyl-d3)-1H-pyrazol-4-yl)pyrazolo[1,5-a]pyridine-3-carbonitrile] | 11.1 µL/min/mg | 124 min | 11.3 µL/min/mg | 122 min | 76 µL/min/mg | 18.2 min |  |  | 
8 | [2H]C([2H])(c1ccc(OC)nc1)N1C2CC1CN(c1ccc(-c3cc(OC[C@H]4CNCCO4)cn4ncc(C#N)c34)cn1)C2 [Example 8] | 10.6 µL/min/mg | 131 min | 5.3 µL/min/mg | 263 min | 5.8 µL/min/mg | 237 min | 3360 nM |  | 
9 | [2H]C([2H])(c1ccc(OC)nc1)N1C2CC1CN(c1ccc(-c3cc(OCC(C)(C)O)cn4ncc(C#N)c34)cn1)C2 [Example 11, 6-(2-hydroxy-2-methylpropoxy)-4-(6-(6-((6-methoxypyridin-3-yl)methyl-d2)-3,6-diazabicyclo[3.1.1]heptan-3-yl)pyridin-3-yl)pyrazolo[1,5-a]pyridine-3-carbonitrile] | 96.2 µL/min/mg | 14.4 min | 11.7 µL/min/mg | 118 min | 44.8 µL/min/mg | 30.9 min | 3510 nM | 19.1 nM | 40.5 nM
10 | [2H]C([2H])([2H])Oc1ccc(CN2C3CC2CN(c2ccc(-c4cc(OCC(C)(C)O)cn5ncc(C#N)c45)cn2)C3)cn1 [Example 12, 6-(2-hydroxy-2-methylpropoxy)-4-(6-(6-((6-(methoxy-d3)pyridin-3-yl)methyl)-3,6-diazabicyclo[3.1.1]heptan-3-yl)pyridin-3-yl)pyrazolo[1,5-a]pyridine-3-carbonitrile] | 93.1 µL/min/mg | 14.9 min | 10.1 µL/min/mg | 137 min | 44.9 µL/min/mg | 30.8 min | 5930 nM | 16 nM | 45.2 nM
11 | [2H]C([2H])([2H])Oc1ccc(C([2H])([2H])N2C3CC2CN(c2ccc(-c4cc(OCC(C)(C)O)cn5ncc(C#N)c45)cn2)C3)cn1 [Example 13, 6-(2-hydroxy-2-methylpropoxy)-4-(6-(6-((6-(methoxy-d3)pyridin-3-yl)methyl-d2)-3,6-diazabicyclo[3.1.1]heptan-3-yl)pyridin-3-yl)pyrazolo[1,5-a]pyridine-3-carbonitrile] | 92.2 µL/min/mg | 15 min | 10.8 µL/min/mg | 128 min | 42.8 µL/min/mg | 32.4 min | > 10000 nM | 23.5 nM | 90 nM
